# Tested on: Mycobacterium tuberculosis H37Rv strains
# Assay: In vitro assay for antimicrobial susceptibility (microplate Alamar blue MIC)
# Format: cell-based
# Conditions: Mycobacterium tuberculosis, H37RV, 7H9, Alamar blue, inhibition ≧90%; read-out: MIC (μg/mL) against H37Rv
row,SMILES,MIC
1,"FC(F)(F)Oc1ccc(-n2c3c/c(=N\C4CCOCC4)c(Nc4ncccn4)cc-3nc3ccccc32)cc1 [TBI-830, 5-(4-Trifluoromethoxyphenyl)-3-(4-tetrahydropyranyl)imino-2-(pyrimidin-2-yl)amino-3,5-dihydrophenazine]",0.014 µg/mL
2,"COC1CCC(/N=c2\cc3n(-c4ccc(F)cc4)c4ccccc4nc-3cc2Nc2ncccc2C#N)CC1 (stereo not shown) [TBI-1082, 5-(4-Fluorophenyl)-3-(4-methoxycyclohexyl)imino-2-(3-cyano-2-pyridyl)amino-3,5-dihydrophenazine]",0.029 µg/mL

# Same assay, conditions: Mycobacterium tuberculosis, H37RV, in vitro, Mycobacterium tuberculosis H37Rv strains; read-out: MIC (μg/mL) against H37Rv
row,SMILES,MIC
1,"Cc1ccc(-n2c3c/c(=N\C4CCOCC4)c(Nc4ccc(C)nc4)cc-3nc3ccccc32)cc1 [TBI-317, 5-(4-Methylphenyl)-3-(4-tetrahydropyranyl)imino-2-(6-methyl-3-pyridyl)amino-3,5-dihydrophenazine]",0.055 µg/mL
2,"COc1ncccc1Nc1cc2nc3ccc(F)cc3n(-c3ccc(OC(F)(F)F)cc3)c-2c/c1=N\C1CCCCC1 [TBI-856, 7-Fluoro-5-(4-trifluoromethoxyphenyl)-3-cyclohexylimino-2-(2-methoxy-3-pyridyl)amino-3,5-dihydrophenazine]",0.029 µg/mL
3,"COc1ncccc1Nc1cc2nc3ccccc3n(-c3ccccc3)c-2c/c1=N\C1CCCCC1 [TBI-079, 5-Phenyl-3-cyclohexylimino-2-(2-methoxy-3-pyridyl)amino-3,5-dihydrophenazine]",0.068 µg/mL
4,"Cc1ccc(-n2c3c/c(=N\C4CCC4)c(Nc4cccnc4)cc-3nc3ccccc32)cc1 [TBI-345, 5-(4-Methylphenyl)-3-cyclobutylimino-2-(3-pyridyl)amino-3,5-dihydrophenazine]",0.221 µg/mL
5,"COc1ncccc1Nc1cc2nc3ccccc3n(-c3ccc(C(F)(F)F)cc3)c-2c/c1=N\C(C)C [TBI-699, 5-(4-Trifluoromethylphenyl)-3-(1-methylethyl)imino-2-(2-methoxy-3-pyridyl)amino-3,5-dihydrophenazine]",0.029 µg/mL
6,"COc1ncccc1Nc1cc2nc3ccccc3n(-c3ccc(NC(C)=O)cc3)c-2c/c1=N\C1CC1 [TBI-1221, 5-(4-Acetamidophenyl)-3-cyclopropylimino-2-(2-methoxy-3-pyridyl)amino-3,5-dihydrophenazine]",0.9 µg/mL
7,"OC1CCC(/N=c2\cc3n(-c4ccc(Br)cc4)c4ccccc4nc-3cc2Nc2cccnc2)CC1 (stereo not shown) [TBI-094, 5-(4-Bromophenyl)-3-(4-hydroxycyclohexyl)imino-2-(3-pyridyl)amino-3,5-dihydrophenazine]",0.5 µg/mL
8,"Cc1ccc(Nc2cc3nc4ccccc4n(-c4ccc(Br)cc4)c-3c/c2=N\C2CC2)cn1 [TBI-100, 5-(4-Bromophenyl)-3-cyclopropylimino-2-(6-methyl-3-pyridyl)amino-3,5-dihydrophenazine]",0.011 µg/mL
9,COc1ccc(Nc2cc3nc4ccccc4n(-c4ccc(C(F)(F)F)cc4)c-3c/c2=N\C2CCCCC2)cn1 [TBI-732],0.113 µg/mL
10,COc1ccc(Nc2cc3nc4ccccc4n(-c4ccc(F)cc4)c-3c/c2=N\C(C)C)cn1 [TBI-930],0.494 µg/mL
11,"Cc1ccc(Nc2cc3nc4ccccc4n(-c4ccc(Cl)c(Cl)c4)c-3c/c2=N\C2CCC2)cn1 [TBI-948, 5-(3,4-Dichlorophenyl)-3-cyclobutylimino-2-(6-methyl-3-pyridyl)amino-3,5-dihydrophenazine]",0.125 µg/mL
12,"COc1ccc(Nc2cc3nc4ccccc4n(-c4ccc(C(F)(F)F)cc4)c-3c/c2=N\C2CCC2)cn1 [TBI-737, 5-(4-Trifluoromethylphenyl)-3-cyclobutylimino-2-(6-methoxy-3-pyridyl)amino-3,5-dihydrophenazine]",0.119 µg/mL
13,"COC1CCC(/N=c2\cc3n(-c4ccc(C(F)(F)F)cc4)c4ccccc4nc-3cc2Nc2ccc(NC(C)=O)nc2)CC1 (stereo not shown) [TBI-715, 5-(4-Trifluoromethylphenyl)-3-(4-methoxycyclohexyl)imino-2-(6-acetamino-3-pyridyl)amino-3,5-dihydrophenazine]",0.06 µg/mL
14,"CC(C)/N=c1\cc2n(-c3ccc(OC(F)(F)F)cc3)c3ccccc3nc-2cc1Nc1cccnc1 [TBI-157, 5-(4-Trifluoromethoxyphenyl)-3-(1-methylethyl)imino-2-(3-pyridyl)amino-3,5-dihydrophenazine]",0.03 µg/mL

# From US8716292B2, “Riminophenazines with 2-(heteroaryl)amino substituents and their anti-microbial activity” (priority 2010, dated 2014)
